Results on one compound are retold here after ChEMBL document CHEMBL4130419, “Novel chemotypes targeting tubulin at the colchicine binding site and unbiasing P-glycoprotein” (Eur J Med Chem, 2017).

pIC50: −log10 of the molar value.

A short description of data set [1]: Apparent permeability from apical to basolateral side in MDCK2-MDR1 cells at 75 uM after 2 hrs UV-visible spectroscopy. Type of data set: ADME, cell-based, Canis lupus familiaris. The following applies: dog, MDCK-MDR1.
Another data set relates to MCF7. In words: Antiproliferative activity against human MCF7 cells after 72 hrs by MTT assay. The following applies: MCF7, 72 h. The class given is functional, cell-based.
Data set [2] in a line: Apparent permeability from basolateral to apical side in MDCK2-MDR1 cells at 75 uM after 2 hrs UV-visible spectroscopy. Type of data set: ADME, cell-based, Canis lupus familiaris. The following applies: dog, MDCK-MDR1.
A further data set has as its system HepG2. In words: Antiproliferative activity against human HepG2 cells after 72 hrs by MTT assay. Type of data set: functional, cell-based. The settings on record: HepG2, 72 h.
Another data set deals with SH-SY5Y. Nature of the data set: Antiproliferative activity against human SH-SY5Y cells after 72 hrs by MTT assay. The class given is functional, cell-based.
The species named for another data set is Sus scrofa. Nature of the data set: Inhibition of tubulin polymerization in porcine brain assessed as disruption of microtubule organization after 1 hr by fluorescence polarization assay.
A further data set has as its system HeLa. Nature of the data set: Antiproliferative activity against human HeLa cells after 72 hrs by MTT assay. The class given is functional, cell-based.
Data set [3] is described as follows: Efflux ratio of apparent permeability from basolateral to apical over apical to basolateral side in MDCK2-MDR1 cells at 75 uM after 2 hrs by UV-visible spectroscopy. The following applies: dog, MDCK-MDR1. The class given is ADME, cell-based, Canis lupus familiaris.

`O=C(c1c[nH]c2ccccc12)C(NCc1ccc2c(c1)OCO2)c1ccccc1` (stereo not drawn): the apical-to-basolateral permeability (Papp A→B) at 2 h, 75 µM in data set [1] came out at 90 ×10⁻⁶ cm/s. Further, the pIC50 with MCF7 was 4.59; in the data set with HepG2 it was 4.49; in the data set with SH-SY5Y, 4.76; in the data set on HeLa it was 4.65. For the same compound, the Papp B→A at 2 h, 75 µM in data set [2] turned out to be 92 ×10⁻⁶ cm/s. In the data set listed under Sus scrofa, the inhibition result was “Dose-dependent effect”. Moreover, in data set [3], the efflux ratio at 2 h, 75 µM stood at 1.02.
